These are literature values, as cited in patent US20230172880A1, “FAST-ACTING TOPICAL ANESTHETIC FORMULATIONS” (priority 2020, published 2023).

The structures appear in SMILES notation.

For this data set the following is noted: administered directly into tissue.

As for `CCN(CC)CC(=O)Nc1c(C)cccc1C` [lidocaine], the onset entry was “less than 2 min”.
